In US20240374739A1, “BILE ACID CONJUGATE” (Curtin University, priority 2021, published 2024):

How the values were obtained:
[1] = system: Neurodegenerated cells (Parkinson's disease model); assay: Adenosine triphosphate (ATP) assay, Parkinson's disease model; assay type: cell-based, human; details: PD model; probucol 20 μM, SPQ 10 μM, HA-1 10 μM, L-Dopa 50 μM, 24 hours
Protocol: Perinatal tissue derived human stem cell model for Parkinson's disease (PD) was prepared using proprietary protocols to test the effect of new drug entities. Drug treatment was for 24 hours in all the assays.
Impaired energy metabolism and reduced ATP levels are common features of PD. Using the stem cell derived PD model, we measured ATP levels in drug treated (probucol, SPQ and HA-1 and L-Dopa) cells and compared with neurodegenerated (ND) cells.
Neurodegenerated cells were incubated with probucol (20 μM), SPQ (10 μM), HA-1 (10 μM) and L-Dopa (50 μM) for 24 hours (p<0.05; *p<0.05, **p<0.001, ***p<0.0001, ns=non-significant, n=3).

Pancreatic NIT-1 β-cells = assay: MTT viability assay on pancreatic NIT-1 β-cells; assay type: cell-based; details: glucose 25.5 mM (hyperglycemic); 10 μM probucol, 10 μM HA-1
Protocol: Cells were grown and processed in a Dulbecco's Modified Eagle's media with 11.5% foetal bovine serum, as per the protocols described below.
Specifically, the cells were cultured on T-75 cm^2 tissue culture flasks (Thermo Fisher Scientific®, Australia) and fed with Dulbecco's modified Eagle's medium (DMEM) (Gibco, Life Technologies, USA) supplemented with either 5.5 mM glucose or 25.5 mM glucose (Sigma Chemical Co, USA), 11.5% fetal bovine serum (Thermo Fisher Scientific, Australia), and 5% penicillin-streptomycin (Thermo Fisher Scientific, Australia). The β-cells were incubated in an environment of 5% CO2 in humidified air at 37° C. using a Nuaire NU-8500 Water Jacket CO2 Incubator (Nuaire, USA) for 72 hours.
The MTT assay for cellular mitochondrial activity is a common and an important analytical technique for determining the degree of cell viability and biological activity. Briefly, MTT was prepared as 5 mg/ml stock solution (Sigma Chemical CO, USA) in phosphate buffer, at pH 7.4 (Thermo Fisher Scientific, Australia). The undissolved residues were removed by sterile filtration. The stock solution was stored in a sterile environment at 4° C. in the dark and used within 7 days of preparation. […] Formazan was dissolved in 100 μl of dimethyl sulfoxide (DMSO) (Sigma Chemical CO, USA) via reverse pipetting and the resultant purple solution was analysed photometrically at 550 nm.

[2] = system: rat model of repeated sub-concussion; assay: Rotarod test, rat model of repeated sub-concussion (Experimental Example 6); assay type: in vivo, Female PVG rats; details: rats, 12-week repeated sub-concussion; probucol 0.1% w/w, HA-1 0.2% w/w in diet (FIG. 20A)
Excerpt: Female PVG rats aged 5-7 weeks were used. Under complete anaesthesia with isoflurane, a 25 g weight was dropped onto lambda of the skull from a 1 m height. This was repeated consecutively for 10 times per procedure. The procedure was repeated 3 times per week (i.e., Monday, Wednesday, Friday) for the duration of 12 weeks. Sham group rats received the same procedure without the weight drops. The probucol treatment group received probucol which was supplemented into the diet at 0.1% w/w. The HA-1 treatment group received HA-1 also in the diet at 0.2% w/w for the entire duration of the study.
After the completion of 12-week sub-concussion procedures, neuromotor function was tested with established rotarod and beamwalk tests. On beamwalk, the higher the slips show, the more impairment. On rotarod, the lower the latency indicates the more impairment.

diabetic db/db mice = assay: Plasma amyloid-β (Aβ40, Aβ42, oligomers, Aβ42/40 ratio) in diabetic db/db mice; assay type: in vivo
Excerpt: In this study, 4-5 week old diabetic db/db mice were put onto a diet containing probucol 0.1% (w/w) or HA-1 0.2% (w/w) for either 10 or 24 weeks, till the age of 14 or 28 weeks, respectively. Passive avoidance test was used to assess short-term memory. Subsequently, the mice were sacrificed to obtain plasma and brain tissue samples for further analyses. […]

[3] = system: Amniotic membrane mesenchymal stem cells (AM-MSCs); assay: Cytotoxicity study by MTT cell viability assay; assay type: cell-based, human; details: 10-30 μM, 24 hours
Protocol: (§1) Amniotic membrane mesenchymal stem cells (AM-MSCs) were incubated with different concentrations (10, 15, 20, 25 and 30 uM, and DMSO control) of (A) probucol, (B) SPQ, (C) HA-1, and (D) DMSO for 24 hours. D1=DMSO control for 10 μM, D2=DMSO control for 20 μM (p<0.05; *p<0.05, **p<0.001, ***p<0.0001, ns=non-significant, n=3).
as §1, with “HA-1 and,” for “HA-1, and”

[4] = Experimental Example 1 (FIG. 1)
[5] = Experimental Example 2 (FIG. 8)

SMILES	ATP level [1]	NIT-1 cell viability (Pancreatic NIT-1 β-cells)	rotarod latency [2]	Aβ42/40 ratio (diabetic db/db mice; 14 weeks of age)	plasma Aβ40 (diabetic db/db mice; 14 weeks of age)	plasma Aβ42 (diabetic db/db mice; 14 weeks of age)	plasma concentrations of Aβ oligomers (diabetic db/db mice; 14 weeks of age)	Aβ42/40 ratio (diabetic db/db mice; 28 weeks of age)	plasma Aβ40 (diabetic db/db mice; 28 weeks of age)	plasma Aβ42 (diabetic db/db mice; 28 weeks of age)	plasma concentrations of Aβ oligomers (diabetic db/db mice; 28 weeks of age)	cytotoxicity by MTT cell viability assay [3, 4]	cytotoxicity by MTT cell viability assay [3, 5]
CC(=O)O[C@@H]1CC[C@@]2(C)[C@H](CC[C@@H]3[C@@H]2CC[C@]2(C)[C@@H]([C@H](C)CCC(=O)Oc4c(C(C)(C)C)cc(SC(C)(C)Sc5cc(C(C)(C)C)c(O)c(C(C)(C)C)c5)cc4C(C)(C)C)CC[C@@H]32)C1 [HA-1, 2,6-di-tert-butyl-4-((2-((3,5-di-tert-butyl-4-hydroxyphenyl)thio)propan-2-yl)thio)phenyl (4R)-4-[(3R,5R,8R,9S,10S,13R,14S,17R)-3-acetoxy-10,13-dimethyl-2,3,4,5,6,7,8,9,11,12,14,15,16,17-tetradecahydro-1H-cyclopenta[a]phenanthren-17-yl]pentanoate]	Enhanced increase in ATP levels	even more profound effect on ameliorating cell death	significant increase in the latency	remarkably reduced	did not change plasma Aβ40 levels	remarkably attenuated	significantly reduced	remarkably reduced	increased plasma Aβ40 levels	significantly reduced	significantly reduced	–	–
CC1(C)SC2(C=C(C(C)(C)C)C(=O)C(C(C)(C)C)=C2)C2(C=C(C(C)(C)C)C(=O)C(C(C)(C)C)=C2)S1 [SPQ, 2,4,9,11-tetrakis(1,1-dimethylethyl)-14,14-dimethyl-13,15-dithiadispiro[5.0.5.3]pentadeca-1,4,8,11-tetraene-3,10-dione]	Enhanced increase in ATP levels	–	–	–	–	–	–	–	–	–	–	not toxic to the cells	not toxic to the cells
CC(C)(Sc1cc(C(C)(C)C)c(O)c(C(C)(C)C)c1)Sc1cc(C(C)(C)C)c(O)c(C(C)(C)C)c1 [probucol, 2,6-ditert-butyl-4-[2-(3,5-ditert-butyl-4-hydroxyphenyl)sulfanylpropan-2-ylsulfanyl]phenol]	–	partially offset hyperglycaemia-induced pancreatic beta cell death	did not show any changes	–	did not change plasma Aβ40 levels	no beneficial effect	not observed	–	–	–	not observed	not toxic to the cells	not toxic to the cells
